What is called IC50 is the concentration at which inhibition is half-maximal.

In the assay the target is T1, human C1 r (Homo sapiens, UniProt P00736).
T1 construct: purchased Enzyme Research Labs (South Bend, Ind.)
T1 sequence (P00736 464-705 limits assumed): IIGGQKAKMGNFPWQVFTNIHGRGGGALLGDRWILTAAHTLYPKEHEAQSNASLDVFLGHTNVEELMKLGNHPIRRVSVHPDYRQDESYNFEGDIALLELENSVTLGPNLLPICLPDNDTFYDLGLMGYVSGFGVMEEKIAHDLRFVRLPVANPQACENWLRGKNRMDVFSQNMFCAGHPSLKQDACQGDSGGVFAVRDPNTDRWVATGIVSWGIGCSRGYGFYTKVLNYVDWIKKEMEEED
T1 sequence (P00736 18-463 partner limits assumed): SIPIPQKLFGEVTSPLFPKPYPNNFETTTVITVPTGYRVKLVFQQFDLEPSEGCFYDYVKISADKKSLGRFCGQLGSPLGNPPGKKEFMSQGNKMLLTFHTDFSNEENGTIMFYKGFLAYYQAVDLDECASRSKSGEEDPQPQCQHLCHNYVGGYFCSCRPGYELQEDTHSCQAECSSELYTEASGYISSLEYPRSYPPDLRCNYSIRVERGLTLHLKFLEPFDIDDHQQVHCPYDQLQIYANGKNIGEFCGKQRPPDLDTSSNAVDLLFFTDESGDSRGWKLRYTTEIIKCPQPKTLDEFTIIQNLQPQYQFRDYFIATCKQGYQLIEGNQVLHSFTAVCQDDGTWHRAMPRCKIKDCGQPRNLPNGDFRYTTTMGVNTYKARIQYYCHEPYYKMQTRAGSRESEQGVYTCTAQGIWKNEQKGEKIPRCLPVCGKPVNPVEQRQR
The assay is described as follows: Assay of C1r Enzyme Activity (Assay 1), thioester substrate z-Gly-Arg-S-Bzl with DTNB. In kind it is biochemical. To be noted: Table 1 and text, pH 7.4-7.5, read-out: Inhibition of Clr Assay 1 (IC50). As to the method:
Assay of C1 r Enzyme Activity Purified human C1 r was obtained commercially from Enzyme Research Labs (South Bend, Ind.). The enzyme is stored frozen at -70° C. at a stock concentration of about 1 mg/mL of protein until the enzyme is needed. […] The thioester substrate, z-Gly-Arg-S-Bzl, for C1 r assays (McRae, et al., 1981) is obtained commercially from Enzyme System Products (Livermore, Calif.). All other reagents were obtained from Sigma Chemical Co. (St. Louis, Mo.). The procedure for assaying the inhibition of C1 r enzyme activity is as follows. A 5 mM stock solution of z-Gly-Arg-S-Bzl is made in dimethylsulfoxide (DMSO) and stored at room temperature until needed. The stock substrate solution is diluted 3 parts stock substrate solution to 7 parts distilled water to make a 1.5 mM working substrate solution. The working substrate solution is made just before it is needed. A fresh solution of 20 μg/mL of C1 r enzyme is made in 10 mM Tris buffer, pH 7.4. The enzyme solution can be stored on ice for up to an hour. […] Compounds at concentrations ranging from 1 mM to 0.010 mM are dissolved in DMSO and a 10 μL aliquot of each concentration is deposited in a well of a 96-well microtiter plate. Fifty microliters of the working substrate solution and 50 μL of DTNB solution are then dispensed in the wells of the microtiter plate, followed by the immediate addition of 50 μL of the C1 r enzyme solution to start the assay. The assay produces a yellow color that is read in the kinetic mode using a Molecular Devices Thermomax microplate reader set to a wavelength of 405 nm. The assay background is followed by monitoring wells that contain substrate, buffer, and DTNB solutions but no enzyme. All assays are performed in triplicate at each inhibitor concentration tested. Values for each inhibitor concentration are reported as optical density (OD)/minute.
As to `O=c1oc(Nc2ccccc2Cl)nc2ccccc12` [Example 2, 2-(2-Chloro-phenylamino)-benzo[d][1,3]oxazin-4-one], the IC50 was found to be 6.5 µM.
For `O=c1oc(Nc2ccccc2Br)nc2ccccc12` [Example 3, 2-(2-Bromo-phenylamino)-benzo[d][1,3]oxazin-4-one], the IC50 is 5.1 µM.
Under `O=c1oc(Nc2ccccc2I)nc2ccccc12` [Example 4, 2-(2-Iodo-phenylamino)-benzo[d][1,3]oxazin-4-one] stands 3.5 µM; under `O=c1oc(Nc2cccc(I)c2)nc2ccccc12` [Example 5, 2-(3-Iodo-phenylamino)-benzo[d][1,3]oxazin-4-one], greater than 67 µM; under `O=c1oc(Nc2ccc(I)cc2)nc2ccccc12` [Example 6, 2-(4-Iodo-phenylamino)-benzo[d][1,3]oxazin-4-one], greater than 67 µM.
Take `O=c1oc(Nc2c(Cl)cccc2Cl)nc2ccccc12` [Example 7, 2-(2,6-Dichloro-phenylamino)-benzo[d][1,3]oxazin-4-one]: the IC50 worked out at 1.3 µM.
For the compound `CSc1ccccc1Nc1nc2ccccc2c(=O)o1` [Example 8, 2-(2-Methylsulfanyl-phenylamino)-benzo[d][1,3]oxazin-4-one], the IC50 is greater than 66 µM.
Take `O=c1oc(Nc2ccccc2OC(F)(F)F)nc2ccccc12` [Example 9, 2-(2-Trifluoromethoxy-phenylamino)-benzo[d][1,3]oxazin-4-one]: the half-inhibitory concentration (IC50) was 4 µM.
As for `CN(c1nc2ccccc2c(=O)o1)c1ccccc1I` [Example 10, 2-[Methyl-(2-iodo-phenyl)-amino]benzo[d][1,3]oxazin-4-one], the IC50 is 1.4 µM.
As for `CCN(c1nc2ccccc2c(=O)o1)c1ccccc1I` [Example 11, 2-[Ethyl-(2-iodo-phenyl)-amino]-benzo[d][1,3]oxazin-4-one], the IC50 is greater than 66 µM.
For `CN(C(=O)c1ccccc1I)c1nc2ccccc2c(=O)o1` [Example 12, 2-Iodo-N-methyl-N-(4-oxo-4H-benzo[d][1,3]oxazin-2-yl)-benzamide], the IC50 is 3.1 µM.
On to `CN(C(=O)c1c(Cl)cccc1Cl)c1nc2ccccc2c(=O)o1` [Example 13, 2,6-Dichloro-N-methyl-N-(4-oxo-4H-benzo[d][1,3]oxazin-2-yl)-benzamide], for which the IC50 is 8 µM.
Consider `CN(C(=O)c1ccccc1Br)c1nc2ccccc2c(=O)o1` [Example 14, 2-Bromo-N-methyl-N-(4-oxo-4H-benzo[d][1,3]oxazin-2-yl)-benzamide], for which the IC50 was found to be 4 µM.
For the compound `CSc1ccccc1C(=O)N(C)c1nc2ccccc2c(=O)o1` [Example 15, N-Methyl-2-methylsulfanyl-N-(4-oxo-4H-benzo[d][1,3]oxazin-2-yl)-benzamide], the IC50 was determined as 0.8 µM.
The figure for `CN(C(=O)c1ccccc1C(F)(F)F)c1nc2ccccc2c(=O)o1` [Example 16, N-Methyl-N-(4-oxo-4H-benzo[d][1,3]oxazin-2-yl)-2-trifluoromethyl-benzamide] is 1.5 µM.
For `CN(C(=O)c1ccccc1)c1nc2ccccc2c(=O)o1` [Example 17, N-Methyl-N-(4-oxo-4H-benzo[d][1,3]oxazin-2-yl)benzamide], the IC50 was determined as 10.7 µM.
As to `CCN(C(=O)c1ccccc1I)c1nc2ccccc2c(=O)o1` [Example 18, N-Ethyl-2-iodo-N-(4-oxo-4H-benzo[d][1,3]oxazin-2-yl)-benzamide], the IC50 came to 8.3 µM.
In the case of `CN(C)c1ccc2c(=O)oc(Nc3ccccc3I)nc2c1` [Example 19, 7-Dimethylamino-2-(2-iodo-phenylamino)-benzo[d][1,3]oxazin-4-one], the IC50 was greater than 66 µM.
For the compound `O=c1oc(Nc2ccccc2I)nc2cc3ccccc3cc12` [Example 20, 2-(2-Iodo-phenylamino)-naphtho[2,3-d][1,3]oxazin-4-one], the IC50 is 1.4 µM.
As to `O=c1oc(Nc2ccccc2I)nc2cccc(Cl)c12` [Example 21, 5-Chloro-2-(2-iodo-phenylamino)-benzo[d][1,3]oxazin-4-one], the IC50 worked out at 14.5 µM.
As to `O=c1oc(Nc2ccccc2I)nc2ccc(Cl)cc12` [Example 22, 6-Chloro-2-(2-iodo-phenylamino)-benzo[d][1,3]oxazin-4-one], the IC50 is 4 µM.
Under `O=c1oc(Nc2ccccc2I)nc2cc(Cl)ccc12` [Example 23, 7-Chloro-2-(2-iodo-phenylamino)-benzo[d][1,3]oxazin-4-one] stands 0.7 µM.
On to `COc1ccc2nc(Nc3ccccc3I)oc(=O)c2c1` [Example 24, 2-(2-Iodo-phenylamino)-6-methoxy-benzo[d][1,3]oxazin-4-one], for which the IC50 was 55 µM.
Regarding `COc1ccc2c(=O)oc(Nc3ccccc3I)nc2c1` [Example 25, 2-(2-Iodo-phenylamino)-7-methoxy-benzo[d][1,3]oxazin-4-one], the half-inhibitory concentration (IC50) is greater than 66 µM.
For `Cc1cccc2nc(Nc3ccccc3I)oc(=O)c12` [Example 26, 2-(2-Iodo-phenylamino)-5-methyl-benzo[d][1,3]oxazin-4-one], the IC50 was greater than 66 µM.
Turning to `Cc1ccc2nc(Nc3ccccc3I)oc(=O)c2c1` [Example 27, 2-(2-Iodo-phenylamino)-6-methyl-benzo[d][1,3]oxazin-4-one], the IC50 is greater than 66 µM.
In the case of `Cc1ccc2c(=O)oc(Nc3ccccc3I)nc2c1` [Example 28, 2-(2-Iodo-phenylamino)-7-methyl-benzo[d][1,3]oxazin-4-one], the IC50 came out at 0.8 µM.
Consider `O=c1oc(Nc2ccccc2I)nc2cc(Cl)c(Cl)cc12` [Example 29, 6,7-Dichloro-2-(2-iodo-phenylamino)-benzo[d][1,3]oxazin-4-one], for which the IC50 came out at 0.5 µM.
The figure for `O=c1oc(Nc2ccccc2I)nc2cc([N+](=O)[O-])ccc12` [Example 30, 2-(2-Iodo-phenylamino)-7-nitro-benzo[d][1,3]oxazin-4-one] is 0.75 µM; for `O=c1oc(Nc2ccccc2I)nc2cc(C(F)(F)F)ccc12` [Example 31, 2-(2-Iodo-phenylamino)-7-trifluoromethylbenzo[d][1,3]oxazin-4-one] it is 0.4 µM.
Consider `CN(C(=O)c1ccsc1)c1nc2ccccc2c(=O)o1` [Example 32, Thiophene-3-carboxylic acid methyl-(4-oxo-4H-benzo[d][1,3]oxazin-2-yl)-amide], for which the IC50 was found to be 6 µM.
Turning to `CN(C(=O)c1ccccc1F)c1nc2ccccc2c(=O)o1` [Example 33, 2-Fluoro-N-methyl-N-(4-oxo-4H-benzo[d][1,3]oxazin-2-yl)-benzamide], the IC50 came to 60 µM.
For the compound `CN(C(=O)c1ccccc1Cl)c1nc2ccccc2c(=O)o1` [Example 34, 2-Chloro-N-methyl-N-(4-oxo-4H-benzo[d][1,3]oxazin-2-yl)-benzamide], the IC50 stood at 16 µM.
Turning to `COc1ccccc1C(=O)N(C)c1nc2ccccc2c(=O)o1` [Example 35, 2-Methoxy-N-methyl-N-(4-oxo-4H-benzo[d][1,3]oxazin-2-yl)-benzamide], the IC50 was greater than 66 µM.
Take `Cc1ccccc1C(=O)N(C)c1nc2ccccc2c(=O)o1` [Example 36, 2,N-Dimethyl-N-(4-oxo-4H-benzo[d][1,3]oxazin-2-yl)-benzamide]: the IC50 was greater than 67 µM.
`CN(C(=O)c1cccc(I)c1)c1nc2ccccc2c(=O)o1` [Example 37, 3-Iodo-N-methyl-N-(4-oxo-4H-benzo[d][1,3]oxazin-2-yl)-benzamide]: the IC50 is 20 µM.
The figure for `CN(C(=O)c1ccc(I)cc1)c1nc2ccccc2c(=O)o1` [Example 38, 4-Iodo-N-methyl-N-(4-oxo-4H-benzo[d][1,3]oxazin-2-yl)-benzamide] is 33 µM; for `Cc1cccc2nc(N(C)C(=O)c3ccccc3I)oc(=O)c12` [Example 39, 2-Iodo-N-methyl-N-(5-methyl-4-oxo-4H-benzo[d][1,3]oxazin-2-yl)-benzamide] it is greater than 66 µM; for `Cc1ccc2nc(N(C)C(=O)c3ccccc3I)oc(=O)c2c1` [Example 40, 2-Iodo-N-methyl-N-(6-methyl-4-oxo-4H-benzo[d][1,3]oxazin-2-yl)-benzamide] it is 1.3 µM.

(Values after patent publication US5652237A, “2-substituted-4H-3, 1-benzoxazin-4-ones and benzthiazin-4-ones as inhibitors of complement C1r protease for the treatment of inflammatory processes” (Warner-Lambert Company, priority 1995, dated 1997).)
